Patent publication US12606564B2, “Adenosine receptor antagonist compounds” (ILDONG PHARMACEUTICAL CO., LTD., priority 2019, dated 2026)

What was measured:
[1] = biological target: Human recombinant adenosine A2A receptor (Homo sapiens, UniProt P29274); assay: Human adenosine A2A receptor binding assay with [3H] CGS-21680 (Example 4.2); conditions: for activity as dual antagonists of both A2A and A1 receptors (in words): summary of Table 5, binding assays of Examples 4.1 and 4.2
Experimental: Test compound is weighed, dissolved in DMSO to make a stock solution of 10 mM, diluted with DMSO to prepare working solutions, then 100-fold diluted to the indicated concentrations. Human recombinant adenosine A2A receptors expressed in HEK-293 cells were used to prepare membranes in incubation buffer (50 mM Tris-HCl, pH 7.4, 10 mM MgCl2, 1 mM EDTA, 2 U/ml Adenosine Deaminase). Test compound or vehicle (2.2 μL) was added in 200 μL of membranes and incubated with 20 μL of 50 nM [^3H] […] Non-specific binding was estimated in the presence of 50 μM NECA (5′-N-ethylcarboxamidoadenosine). The incubation was stopped by vacuum filtration onto 0.3% PEI (polyethylenimine) presoaked GF/B filters using a harvester followed by four washes with ice-cold 50 mM Tris-HCl, pH 7.4, and the radioactivity on GF/B filtermats counted in a scintillation counter (PerkinElmer Topcount™) to determine [^3H] […] Final concentration of vehicle DMSO is 1%.

[2] = biological target: T1, Human recombinant adenosine A1 receptors (Homo sapiens, UniProt P30542); assay: Human adenosine A1 receptor binding assay with [3H] DPCPX (pyrazolo-pyrimidine compounds, Example 4.1); conditions: membranes of CHO-K1 cells, read-out: hA1 Ki
T1 construct: expressed in transfected cells; host or cells: CHO-K1, membrane preparation
T1 sequence (P30542 1-326): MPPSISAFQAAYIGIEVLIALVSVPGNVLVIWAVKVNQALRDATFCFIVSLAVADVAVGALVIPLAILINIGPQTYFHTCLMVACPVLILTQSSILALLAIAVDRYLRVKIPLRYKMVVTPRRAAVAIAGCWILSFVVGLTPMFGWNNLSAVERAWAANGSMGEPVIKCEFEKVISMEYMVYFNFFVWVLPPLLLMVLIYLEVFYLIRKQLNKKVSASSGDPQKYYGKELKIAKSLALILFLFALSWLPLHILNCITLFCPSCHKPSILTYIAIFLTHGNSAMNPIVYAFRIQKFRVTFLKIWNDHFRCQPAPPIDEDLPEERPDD
Experimental: Test compound is weighed, dissolved in DMSO to make a stock solution of 10 mM, diluted with DMSO to prepare working solutions, then 100-fold diluted to the indicated concentrations. Human recombinant adenosine A1 receptors expressed in CHO-K1 cells were used to prepare membranes in incubation buffer (20 mM HEPES (4-(2-hydroxyethyl)-1-piperazineethanesulfonic acid) pH 7.4, 10 mM MgCl2, 100 mM NaCl). Test compound or vehicle (2.2 μL) was added in 200 μL of membranes and incubated with 20 μL of 1 nM [^3H] DPCPX (8-cyclopentyl-1,3-dipropylxanthine) for 90 minutes at 25° C. Non-specific binding was estimated in the presence of 100 μM R(−)-PIA ((R)—N-(1-methyl-2-phenylethyl)adenosine). The incubation was stopped by vacuum filtration onto 0.3% PEI (polyethylenimine) presoaked GF/B filters using a harvester followed by four washes with ice-cold 50 mM Tris-HCl, pH 7.4, and the radioactivity on GF/B filtermats counted in a scintillation counter (PerkinElmer Topcount™) to determine [^3H] DPCPX specifically bound. Final concentration of vehicle DMSO is 1%.
Data is fitted using the non-linear curve fitting routines in Meth-IQ software (ID Business Solutions Ltd., UK).

Human recombinant adenosine A2A receptor, sequence (P29274 whole entry): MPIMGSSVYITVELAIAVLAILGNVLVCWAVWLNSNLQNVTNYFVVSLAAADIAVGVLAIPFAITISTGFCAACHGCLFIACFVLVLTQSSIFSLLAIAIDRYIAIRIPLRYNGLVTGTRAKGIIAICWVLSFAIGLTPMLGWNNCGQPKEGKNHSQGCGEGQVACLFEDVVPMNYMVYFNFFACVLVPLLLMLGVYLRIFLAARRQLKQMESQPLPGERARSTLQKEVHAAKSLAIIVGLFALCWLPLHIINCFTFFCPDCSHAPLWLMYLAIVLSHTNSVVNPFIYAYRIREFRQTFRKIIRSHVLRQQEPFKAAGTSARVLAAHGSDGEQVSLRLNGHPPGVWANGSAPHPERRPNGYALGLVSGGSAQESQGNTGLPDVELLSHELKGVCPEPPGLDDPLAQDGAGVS

SMILES | Ki [1] [nM] | activity as dual antagonists of both A2A and A1 receptors (in words) [1] | Ki [2] [nM]
N#Cc1cccc(-c2nc(N)nc3c2cnn3Cc2c(F)cc(N)cc2F)c1F [Compound 208, 3-(6-amino-1-(4-amino-2,6-difluorobenzyl)-1H-pyrazolo[3,4-d]pyrimidin-4-yl)-2-fluorobenzonitrile] | < 20 | potent activity as dual antagonists | ≤ 100
N#Cc1cccc(-c2nc(N)nc3c2cnn3Cc2ccc(N)c(C(F)(F)F)c2)c1F [Compound 211, 3-(6-amino-1-(4-amino-3-(trifluoromethyl)benzyl)-1H-pyrazolo[3,4-d]pyrimidin-4-yl)-2-fluorobenzonitrile] | – | potent activity as dual antagonists | –
N#Cc1cccc(-c2nc(N)nc3c2cnn3Cc2c(F)cccc2F)c1F [Compound 213, 3-(6-amino-1-(2,6-difluorobenzyl)-1H-pyrazolo[3,4-d]pyrimidin-4-yl)-2-fluorobenzonitrile] | – | potent activity as dual antagonists | –
